Test system: Pyricularia oryzae
Format: in vivo
Settings: 300 ppm, greenhouse foliar application spray on rice (var. Lemont) plants, inoculated within 24 hours from spraying

N#CCn1nnc(-c2ccccc2)n1 [Example 1, 5-phenyl-2H-tetrazole-2-acetonitrile]
Percent (%) disease control, Rice Blast: 70%
